IC50 data for 24 molecules are collected here from patent US20150175599A1, “FAAH Inhibitors” (Ironwood Pharmaceuticals, Inc., priority 2010, published 2015).

The target of assay [1] is T1, human FAAH-1 (Homo sapiens, UniProt O00519).
T1 sequence (O00519 1-579): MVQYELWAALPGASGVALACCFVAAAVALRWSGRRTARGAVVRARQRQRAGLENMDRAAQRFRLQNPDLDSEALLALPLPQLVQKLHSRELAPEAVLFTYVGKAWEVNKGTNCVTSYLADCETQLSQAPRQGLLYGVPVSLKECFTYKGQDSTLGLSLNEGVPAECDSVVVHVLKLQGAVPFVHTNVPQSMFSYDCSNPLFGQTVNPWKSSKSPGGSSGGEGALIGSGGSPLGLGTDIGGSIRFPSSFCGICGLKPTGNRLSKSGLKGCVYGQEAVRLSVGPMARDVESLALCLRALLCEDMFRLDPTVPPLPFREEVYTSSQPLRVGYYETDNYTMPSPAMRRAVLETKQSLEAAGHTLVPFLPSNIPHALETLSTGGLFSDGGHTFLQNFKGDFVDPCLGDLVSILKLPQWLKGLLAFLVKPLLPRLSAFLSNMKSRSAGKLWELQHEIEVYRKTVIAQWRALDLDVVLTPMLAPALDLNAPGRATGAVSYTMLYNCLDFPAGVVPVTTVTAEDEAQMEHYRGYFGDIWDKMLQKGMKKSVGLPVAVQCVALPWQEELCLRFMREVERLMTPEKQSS
Put plainly: Whole cell anandamide hydrolysis assay (HeLa clone 5c5 transfected with human FAAH-1). The format is cell-based. In a few lines: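 Stable HeLa clone 5c5 expressing human FAAH-1, pre-incubated with compound 10 min at 37° C in DMEM/F12 with 15 mM HEPES pH 7.4 and 0.1% fatty-acid-free BSA. [3H]-anandamide (5 μM stock) added for 15 min; [3H]-ethanolamine separated on charcoal and counted. IC50 from curves constrained to 100% and 0%.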

Assay [2] deals with T2, FAAH (Homo sapiens, UniProt O00519).
T2 construct: Reactions were initiated by adding 12.5 μg of brain microsome; tissue ABS, Inc; host or cells: human brain cerebral cortex, membrane/microsome fraction pooled from 3 donors
T2 sequence (O00519 1-579): T1 sequence (O00519 1-579)
Put plainly: FAAH inhibition, human brain membrane homogenate assay. The format is biochemical.

The mark [3] stands for this setting: HeLa clone 5c5 expressing human FAAH-1, read-out: human FAAH whole cell IC50.
Where [4] appears, read: human brain homogenate, average activity, read-out: Human brain Extract FAAH IC50.

Like-named read-outs stand apart in the source and are kept apart here. Bounds are passed on as bounds.

Consider `COc1cc(NC(=O)C(=O)c2c(C)n(Cc3ccc(Cl)cc3)c3ccc(COC(C)=O)cc23)ccn1` [Compound 10, (1-(4-chlorobenzyl)-3-(2-(2-methoxypyridin-4-ylamino)-2-oxoacetyl)-2-methyl-1H-indol-5-yl)methyl acetate], for which the half-inhibitory concentration (IC50) in assay [1] (setting [3]) and in assay [2] (setting [4]) was less than 100 nM in each case.
For `COc1cc(NC(=O)C(=O)c2c(C)n(Cc3ncc(Cl)cc3Cl)c3cc(Cl)c(OC)cc23)ccn1` [Compound 70, 2-(6-chloro-1-((3,5-dichloropyridin-2-yl)methyl)-5-methoxy-2-methyl-1H-indol-3-yl)-N-(2-methoxypyridin-4-yl)-2-oxoacetamide], the IC50 in assay [1] (setting [3]) and in assay [2] (setting [4]) was less than 100 nM in each case.
Turning to `COc1cc(NC(=O)C(=O)c2c(C)n(Cc3ccc(Cl)cc3)c3ccc(OC(F)(F)F)cc23)ccn1` [Compound 23, 2-(1-(4-chlorobenzyl)-2-methyl-5-(trifluoromethoxy)-1H-indol-3-yl)-N-(2-methoxypyridin-4-yl)-2-oxoacetamide], the IC50 in assay [1] (setting [3]) and in assay [2] (setting [4]) was less than 100 nM each time.
Turning to `COc1cc(NC(=O)C(=O)c2c(C)n(Cc3ccc(Cl)cn3)c3ccc(Cl)cc23)ccn1` [Compound 63, 2-(5-chloro-1-((5-chloropyridin-2-yl)methyl)-2-methyl-1H-indol-3-yl)-N-(2-methoxypyridin-4-yl)-2-oxoacetamide], the IC50 in assay [1] (setting [3]) and in assay [2] (setting [4]) was less than 100 nM throughout.
On to `COc1cc(NC(=O)C(=O)c2c(C)n(Cc3ccc(Cl)cc3)c3ccc(C(C)=O)cc23)ccn1` [Compound 5, 2-(5-acetyl-1-(4-chlorobenzyl)-2-methyl-1H-indol-3-yl)-N-(2-methoxypyridin-4-yl)-2-oxoacetamide], for which the IC50 in assay [1] (setting [3]) and in assay [2] (setting [4]) was less than 100 nM in each case.
`COc1cc(NC(=O)C(=O)c2c(C)n(Cc3ccc(Cl)cc3)c3cnccc23)ccn1` [Compound 35, 2-(1-(4-chlorobenzyl)-2-methyl-1H-pyrrolo[2,3-c]pyridin-3-yl)-N-(2-methoxypyridin-4-yl)-2-oxoacetamide]: the IC50 in assay [1] (setting [3]) was less than 100 nM; in assay [2] (setting [4]), 100 to 1000 nM.
With `COc1cc(NC(=O)C(=O)c2c(C)n(Cc3ccc(Cl)cc3)c3ccc(OC)nc23)ccn1` [Compound 36, 2-(1-(4-chlorobenzyl)-5-methoxy-2-methyl-1H-pyrrolo[3,2-b]pyridin-3-yl)-N-(2-methoxypyridin-4-yl)-2-oxoacetamide], the concentration for half-maximal inhibition (IC50) in assay [1] (setting [3]) and in assay [2] (setting [4]) was less than 100 nM each time.
In the case of `COc1cnc2c(c1)c(C(=O)C(=O)Nc1ccnc(OC)c1)c(C)n2Cc1ccc(Cl)cc1` [Compound 38, 2-(1-(4-chlorobenzyl)-5-methoxy-2-methyl-1H-pyrrolo[2,3-b]pyridin-3-yl)-N-(2-methoxypyridin-4-yl)-2-oxoacetamide], the IC50 in assay [1] (setting [3]) and in assay [2] (setting [4]) was less than 100 nM throughout.
With `COc1cc(NC(=O)C(=O)c2c(C)n(Cc3ccc(Cl)cn3)c3ccc(N)cc23)ccn1` [Compound 65, 2-(5-amino-1-((5-chloropyridin-2-yl)methyl)-2-methyl-1H-indol-3-yl)-N-(2-methoxypyridin-4-yl)-2-oxoacetamide], the values for the IC50 in assay [1] (setting [3]) and in assay [2] (setting [4]) were less than 100 nM and 100 to 1000 nM, respectively.
On to `COc1cc(NC(=O)C(=O)c2c(C)n(Cc3ccc(Cl)cc3)c3ccc(C(=O)N(C)C)cc23)ccn1` [Compound 6, 1-(4-chlorobenzyl)-3-(2-(2-methoxypyridin-4-ylamino)-2-oxoacetyl)-N,N,2-trimethyl-1H-indole-5-carboxamide], for which the IC50 in assay [1] (setting [3]) and in assay [2] (setting [4]) was 100 to 1000 nM each time.
Regarding `COc1ccc(Cn2c(C)c(C(=O)C(=O)Nc3ccnc(OC)c3)c3cc(OC)c(F)cc32)nc1` [Compound 32, 2-(6-fluoro-5-methoxy-1-((5-methoxypyridin-2-yl)methyl)-2-methyl-1H-indol-3-yl)-N-(2-methoxypyridin-4-yl)-2-oxoacetamide], the IC50 in assay [1] (setting [3]) and in assay [2] (setting [4]) was less than 100 nM in each case.
In the case of `CNc1ccc2c(c1)c(C(=O)C(=O)Nc1ccnc(OC)c1)c(C)n2Cc1ccc(Cl)cc1` [Compound 9, 2-(1-(4-chlorobenzyl)-2-methyl-5-(methylamino)-1H-indol-3-yl)-N-(2-methoxypyridin-4-yl)-2-oxoacetamide], the IC50 in assay [1] (setting [3]) and in assay [2] (setting [4]) was less than 100 nM each time.
As to `COc1cc(NC(=O)C(=O)c2c(C)n(Cc3ccc(Cl)cc3)c3ccc(C#N)cc23)ccn1` [Compound 15, 2-(1-(4-chlorobenzyl)-5-cyano-2-methyl-1H-indol-3-yl)-N-(2-methoxypyridin-4-yl)-2-oxoacetamide], the IC50 in assay [1] (setting [3]) and in assay [2] (setting [4]) was less than 100 nM in each case.
For `COc1ccc2c(c1)c(C(=O)C(=O)Nc1ccnc(OC)c1)c(C)n2Cc1ncc(Cl)cc1OC` [Compound 100, 2-(1-((5-chloro-3-methoxypyridin-2-yl)methyl)-5-methoxy-2-methyl-1H-indol-3-yl)-N-(2-methoxypyridin-4-yl)-2-oxoacetamide], the results for the IC50 in assay [1] (setting [3]) and in assay [2] (setting [4]) were less than 100 nM and 100 to 1000 nM, respectively.
`COc1cc(NC(=O)C(=O)c2c(C)n(Cc3ccc(Cl)cc3)c3ccc(OC(C)=O)cc23)ccn1` [Compound 1, 1-(4-chlorobenzyl)-3-(2-(2-methoxypyridin-4-ylamino)-2-oxoacetyl)-2-methyl-1H-indol-5-yl acetate]: the half-maximal inhibitory concentration (IC50) in assay [1] (setting [3]) and in assay [2] (setting [4]) was less than 100 nM throughout.
For `COc1cnc2c(c1)c(C(=O)C(=O)Nc1ccnc(OC)c1)c(C)n2Cc1ncc(Cl)cc1F` [Compound 34, 2-(1-((5-chloro-3-fluoropyridin-2-yl)methyl)-5-methoxy-2-methyl-1H-pyrrolo[2,3-b]pyridin-3-yl)-N-(2-methoxypyridin-4-yl)-2-oxoacetamide], the IC50 in assay [1] (setting [3]) and in assay [2] (setting [4]) was less than 100 nM in each case.
As to `COc1cc(NC(=O)C(=O)c2c(C)n(Cc3ccc(Cl)cc3)c3ccc(CO)cc23)ccn1` [Compound 8, 2-(1-(4-chlorobenzyl)-5-(hydroxymethyl)-2-methyl-1H-indol-3-yl)-N-(2-methoxypyridin-4-yl)-2-oxoacetamide], the IC50 in assay [1] (setting [3]) and in assay [2] (setting [4]) was less than 100 nM in each case.
Take `COc1cc(NC(=O)C(=O)c2c(C)n(Cc3ccc(Cl)cn3)c3ccc(N(C)C)cc23)ccn1` [Compound 66, 2-(1-((5-chloropyridin-2-yl)methyl)-5-(dimethylamino)-2-methyl-1H-indol-3-yl)-N-(2-methoxypyridin-4-yl)-2-oxoacetamide]: the IC50 in assay [1] (setting [3]) and in assay [2] (setting [4]) was less than 100 nM throughout.
For `COc1ccc(Cn2c(C)c(C(=O)C(=O)Nc3ccnc(OC)c3)c3cc(OC)c(C)cc32)nc1` [Compound 96, 2-(5-methoxy-1-((5-methoxypyridin-2-yl)methyl)-2,6-dimethyl-1H-indol-3-yl)-N-(2-methoxypyridin-4-yl)-2-oxoacetamide], the IC50 in assay [1] (setting [3]) and in assay [2] (setting [4]) was less than 100 nM in each case.
With `COc1cc(NC(=O)C(=O)c2c(C)n(Cc3ccc(Cl)cc3)c3ccc(O)cc23)ccn1` [Compound 2, 2-(1-(4-chlorobenzyl)-5-hydroxy-2-methyl-1H-indol-3-yl)-N-(2-methoxypyridin-4-yl)-2-oxoacetamide], the IC50 in assay [1] (setting [3]) and in assay [2] (setting [4]) was less than 100 nM in each case.
Take `COc1cc(NC(=O)C(=O)c2c(C)n(Cc3ccc(Cl)cc3)c3ccc([N+](=O)[O-])cc23)ccn1` [Compound 19, 2-(1-(4-chlorobenzyl)-2-methyl-5-nitro-1H-indol-3-yl)-N-(2-methoxypyridin-4-yl)-2-oxoacetamide]: the IC50 in assay [1] (setting [3]) and in assay [2] (setting [4]) was less than 100 nM each time.
For `COc1cc(NC(=O)C(=O)c2c(C)n(Cc3ncc(F)cc3F)c3ccc(C)cc23)ccn1` [Compound 88, 2-(1-((3,5-difluoropyridin-2-yl)methyl)-2,5-dimethyl-1H-indol-3-yl)-N-(2-methoxypyridin-4-yl)-2-oxoacetamide], the IC50 in assay [1] and in assay [2] was less than 100 nM throughout.
In the case of `COc1cc(NC(=O)C(=O)c2c(C)n(Cc3ccc(Cl)cc3)c3ccc(OC)c(OC)c23)ccn1` [Compound 56, 2-(1-(4-chlorobenzyl)-4,5-dimethoxy-2-methyl-1H-indol-3-yl)-N-(2-methoxypyridin-4-yl)-2-oxoacetamide], the IC50 in assay [1] (setting [3]) and in assay [2] (setting [4]) was 100 to 1000 nM throughout.
`COCc1ccc2c(c1)c(C(=O)C(=O)Nc1ccnc(OC)c1)c(C)n2Cc1ccc(Cl)cc1` [Compound 11, 2-(1-(4-chlorobenzyl)-5-(methoxymethyl)-2-methyl-1H-indol-3-yl)-N-(2-methoxypyridin-4-yl)-2-oxoacetamide]: the IC50 in assay [1] (setting [3]) and in assay [2] (setting [4]) was less than 100 nM each time.

The term IC50 denotes the concentration that gives 50% inhibition.
